Results reported in patent US11072601B2, “μ-opioid receptor agonist and preparation method therefor and use thereof in field of medicine” (SHANGHAI SYNERGY PHARMACEUTICAL SCIENCES CO., LTD., priority 2017, dated 2021).

Tests used:
[1] = system: rat surgical incision injury model; experiment: Rat surgical incision injury model, von Frey paw withdrawal threshold; assay type: in vivo, SD rats; details: rats, intravenous 0.3 mg/kg
Description: 8-week-old male SD rats weighing 200 g-300 g were used as experimental animals to determine the effect of the compound of Example H02, the compound of Example H04, the compound of Example H10, the compound of Example H16, the compound of Example H17, the compound of Example H18, the compound of Example H21 and the compound of Example H24 on surgical pain in rats after intravenous administration. The analgesic effect of the compounds was discussed.
A certain amount of the compounds or TRV130 (MCE, 15150) was weighed, and dissolved in ethanol/castor oil/water=10/10/80 as a clear and transparent solution.
Three days after the rats were acclimatized to the experimental environment, the preoperative base value was determined, and followed by the surgical pain operation described below, about 24 hours after the surgery, the basic value was measured before administration on all animals, and mechanically hypersensitive animals (the paw withdrawal threshold (PWT) was less than 5 g) was randomly assigned to each administration group according to PWT. The pain threshold was determined 30 minutes and 60 minutes after intravenous administration of the positive drug TRV130 or each compound of the present invention (at a dose of 0.3 mg/kg).
The surgical procedure was performed aseptically, and the surgical instruments (scissors, tweezers, scalpels, surgical cotton and sutures) were sterilized before surgery. The animals were anesthetized with sodium pentobarbital (50 mg/kg, injected intraperitoneally), and the toes of the animals were squeezed to confirm that the animals were completely anesthetized before surgery. From the position of 0.5 cm away from the heel, an incision about 1 cm was made in the longitudinal direction of the toe. After cutting the skin, the musculus flexor digitorum brevis was raised and a blunt injury was caused longitudinally. After pressing to stop bleeding, the wound was sutured. When the animal was completely awake (free to move), the animal was put back into the cage (the reference of the construction of surgical pain model: Timothy J. Brennan, Erik P. Vandermeulen, G. F. Gebhart. Characterization of a rat model of incisional pain. Pain, 64(1996):493-501).
An up-down method was used for the determination of pain sensitivity. The mechanical pain results were expressed as animal paw withdrawal response threshold (PWT). The rat was placed separately in a plexiglass box with a mesh at the bottom of the box to ensure that the rat's feet could be tested. The rat was acclimatized for 15 minutes before the test, and after the acclimatization, the test fiber (von frey fiber, West coast) was used to test in the middle part of the hind foot of the rat. The test fibers included 8 test strengths: 3.61 (0.4 g), 3.84 (0.6 g), 4.08 (1 g), 4.31 (2 g), 4.56 (4 g), 4.74 (6 g), 4.93 (8 g), and 5.18 (15 g). During the test, the test fiber was pressed vertically against the skin and a force was applied to bend the fiber for 6-8 seconds, at an interval of 5 seconds between each test. During the test, the animal's rapid withdrawal was recorded as a pain response. When the test fiber left the animal's skin, the animal's withdrawal was also recorded as a pain response. Starting from 2 g, depending on whether the rats had any pain response, the test was changed into the next test intensity or the previous test intensity. A series of responses of the rats to different test intensities were recorded. […] Wherein, Xf was the logarithmic value of von Frey fiber used in the last test, and K value was the animal withdrawal reaction mode (recorded during the test), which was the value obtained after looking up the table according to the obtained sequence of “X” and “O”, δ=Mean of logarithmic difference between von Frey fibers used in the test.

[2] = Pharmacokinetic test in rats, intravenous; assay type: in vivo; details: male, SD, rat, plasma, intravenous 1 mg/kg; for AUC: read-out: curve area (AUC); for half-life: read-out: half life (T½) (converted); for Cmax: read-out: plasma concentration (Cmax)
Description: 8-week-old male SD rats weighing 200-300 g were used as experimental animals, and LC/MS/MS method was used to determine the drug concentration in plasma at different times after the administration of the compound of Example H01, the compound of Example H04, the compound of Example H05, the compound of Example H07, the compound of Example H16, the compound of Example H17, the compound of Example H18, the compound of Example H21, and the compound of Example H24. The pharmacokinetic behavior of the compounds of the present invention in rats was studied, and its pharmacokinetic characteristics were evaluated.
A certain amount of the compounds were weighed, and dissolved in ethanol/castor oil/water=10/10/80 to form a uniform solution.
The above compounds were administered intravenously to rats at a dose of 1 mg/kg, and 0.2 ml of blood was collected from the orbit at 0.083, 0.25, 0.5, 1.0, 2.0, 4.0, 6.0, 8.0, 12.0, 24.0 hours before and after administration, and placed in an anticoagulant tube, the plasma was separated by centrifugation at 6,000 rpm for 10 minutes at 4° C., and stored at −80° C.
50 μL of plasma was taken at different times, 150 μL of acetonitrile solution containing internal standard tolbutamide (200 ng/mL) was added, the system was mixed and shaked for 5 minutes, 12000 rpm, centrifuged for 5 minutes, 100 μL of supernatant was removed, and then mixed with 200 μL of water, then the sample was loaded for analysis. The internal standard tolbutamide solid (Aladdin, T129578) powder was dissolved in DMSO to prepare into a 1 mg/mL stock solution. The stock solution was diluted with 100% acetonitrile to obtain a solution of 200 ng/mL as a protein precipitator.
The liquid chromatography system was an LC-20AD UFLC high performance liquid chromatography system (Shimadzu, LC-20AD). The mass spectrometry system was an AB Sciex API4000 triple quadrupole mass spectrometer equipped with an electrospray ionization source (ESI) (Applied Biosystems, Canada). The software used to control the liquid-mass coanalyzer and quantitative analysis was Analyst 1.6 (Applied Biosystems, Canada), and the pharmacokinetic parameters were analyzed using WinNonlin (version 5.2, Pharsight, Mountain View, Calif.) non-compartment model.
Liquid chromatographic separation was performed using AQ-C18 column (50×2.1 mm, internal diameter of […]). The column temperature was maintained at room temperature.
The compound to be tested was dissolved in DMSO to prepare a stock solution with a concentration of 1 mg/mL, and diluted with 70% acetonitrile to obtain a series of standard working solutions with concentrations of 30, 10, 3, 1, 0.3, 0.1, 0.03, and 0.01. μg/mL, and a series of standard quality control solutions (24, 8 and 0.03 μg/mL). 5 μL of standard solution and 45 μL of blank plasma matrix were mixed uniformity to obtain standard solutions (3000, 1000, 300, 100, 30, 10, 3, and 1 ng/mL) and quality control standards (plasma samples: 2400, 800, 80, and 3 ng/mL) at each concentration point of the standard curve.

Row | SMILES | 50% PWT, 30 min after administration [1] | 50% PWT, 60 min after administration [1] | AUC [2] | half-life [2] | Cmax [2]
1 | Fc1ccc(C2(CCNCc3ccccc3OC(F)(F)F)CCOC3(CCCC3)C2)nc1 (stereo not drawn) [Example H21, {2-[9-(5-fluoro-pyridin-2-yl)-6-oxa-spiro[4.5]decan-9-yl]-ethyl}-(2-(trifluoromethoxy)-phenmethyl)-amine] | 10.72 ± 2.56 g | 8.29 ± 1.06 g | 0.382 ± 0.0108 µg·h/mL | 2.05 ± 0.25 h | 0.283 ± 0.0133 µg/mL
2 | FC(F)(F)Oc1ccc(Cl)cc1CNCCC1(c2ccccn2)CCOC2(CCCC2)C1 (stereo not drawn) [Example H17, (5-chloro-2-trifluoromethoxybenzyl)-[2-(9-(pyridin-2-yl)-6-oxaspiro[4.5]decan-9-yl)ethyl]amine] | 8.85 ± 1.59 g | 7.91 ± 1.43 g | 0.482 ± 0.0318 µg·h/mL | 1.45 ± 0.15 h | 0.388 ± 0.0233 µg/mL
3 | FC(F)Oc1ccsc1CNCCC1(c2ccccn2)CCOC2(CCCC2)C1 (stereo not drawn) [Example H18, ((3-difluoromethoxythiophen-2-yl)methyl)-[2-(9-(pyridin-2-yl)-6-oxaspiro[4.5]decan-9-yl)ethyl]a mine] | 7.85 ± 0.54 g | 6.91 ± 0.33 g | 0.582 ± 0.0118 µg·h/mL | 3.45 ± 0.55 h | 0.483 ± 0.0233 µg/mL
4 | CNc1ccsc1C(=O)NCCC1(c2ccccn2)CCOC2(CCCC2)C1 (stereo not drawn) [Example H24, 3-methylamino-thiophene-2-carboxylic acid [2-(9-pyridin-2-yl-6-oxa-spiro[4.5]decan-9-yl)-ethyl]-amide] | 11.32 ± 2.35 g | 7.29 ± 1.23 g | 0.682 ± 0.021 µg·h/mL | 3.05 ± 0.15 h | 0.583 ± 0.0233 µg/mL
5 | Cc1c(Cl)cccc1CNCCC1(c2ccccn2)CCOC2(CCCC2)C1 (stereo not drawn) [Example H04, (3-chloro-2-methylbenzyl)-[2-(9-(pyridin-2-yl)-6-oxaspiro[4.5]decan-9-yl)ethyl]amine] | 11.72 ± 0.56 g | 8.29 ± 1.06 g | 0.494 ± 0.034 µg·h/mL | 2.92 ± 0.02 h | 0.379 ± 0.0175 µg/mL
6 | FC(F)Oc1ccccc1CNCCC1(c2ccccn2)CCOC2(CCCC2)C1 (stereo not drawn) [Example H16, (2-difluoromethoxybenzyl)-[2-(9-(pyridin-2-yl)-6-oxaspiro[4.5]decan-9-yl)ethyl]amine] | 13.72 ± 0.56 g | 10.29 ± 1.06 g | 1.19 ± 0.054 µg·h/mL | 5.3 ± 0.02 h | 0.821 ± 0.0375 µg/mL
